In patent US7589097B2, “Triazol[4,5-d] pyramidine derivatives and their use as purinergic receptor antagonists” (Vernalis Research Limited, priority 2001, dated 2009):
Structures can show the parent of a compound that is named as a salt.

| SMILES | melting point |
| --- | --- |
| CC(=O)NCc1cccc(Cn2nnc3c(-c4ccco4)nc(N)nc32)n1 [Example 177, 3-(6-Acetamidomethyl-2-pyridylmethyl)-7-(2-furyl)-3H-[1,2,3]triazolo[4,5-d]pyrimidine-5-amine] | 245.9 to 247 °C |
| CC(C)c1ccc(Cn2nnc3c(-c4ccco4)nc(N)nc32)cn1 [Example 228, 7-(2-furyl)-3-(6-isopropyl-3-pyridylmethyl)-3H-[1,2,3]triazolo[4,5-d]pyrimidine-5-amine] | 164.3 to 169.3 °C |
| COc1ccccc1Cn1nnc2c(-c3ccc(C)o3)nc(N)nc21 [Example 72, 3-(2-methyoxybenzyl)-7-(5-methyl-2-furyl)-3H-[1,2,3]triazolo[4,5-d]pyrimidine-5-amine] | 195.4 to 196.5 °C |
| CC(C)(C)OC(=O)n1ccc2cccc(Cn3nnc4c(-c5ccco5)nc(N)nc43)c21 [Example 137, tert-butyl 7-(5-amino-7-(2-furyl)-3H-[1,2,3]triazolo[4,5-d]pyrimidine-3-ylmethyl)indole-1-carboxylate] | 176.3 to 176.5 °C |
| N#Cc1ccnc(Cn2nnc3c(-c4ccco4)nc(N)nc32)c1 [Example 105, 3-(4-cyano-2-pyridylmethyl)-7-(2-furyl)-3H-[1,2,3]triazolo[4,5-d]pyrimidine-5-amine] | 263.2 to 263.5 °C |
| CC(C)(C)OC(=O)Nc1ccc(Cn2nnc3c(-c4ccco4)nc(N)nc32)cc1F [Example 143, tert-butyl N-(4-(5-amino-7-(2-furyl)-3H-[1,2,3]triazolo[4,5-d]pyrimidine-3-ylmethyl)-2-fluorophenyl)carbamate] | 167 to 167.3 °C |
| CC(C)(C)OC(=O)n1cc(Cn2nnc3c(-c4ccco4)nc(N)nc32)c2ccccc21 [Example 204, tert-butyl 3-(5-amino-7-(2-furyl)-3H-[1,2,3]triazolo[4,5-d]pyrimidine-3-ylmethyl)indole-1-carboxylate] | 143.6 to 144.5 °C |
| Nc1nc(-c2ccco2)c2nnn(Cc3ccc4[nH]ncc4c3)c2n1 [Example 200, 7-(2-furyl)-3-(5-indazolylmethyl)-3H-[1,2,3]triazolo[4,5-d]pyrimidine-5-amine] | > 300 °C (dec.) |
| Nc1nc(-c2ccco2)c2nnn(Cc3cccc(CBr)n3)c2n1 [Example 218, 3-(6-bromomethyl-2-pyridylmethyl)-7-(2-furyl)-3H-[1,2,3]triazolo[4,5-d]pyrimidine-5-amine] | 196 to 196.1 °C |

The next lines start with the values.

| melting point | SMILES |
| --- | --- |
| 226.6 to 226.9 °C | Cc1ccc([N+](=O)[O-])c(Cn2nnc3c(-c4ccco4)nc(N)nc32)c1 [Example 96, 7-(2-furyl)-3-(5-methyl-2-nitrobenzyl)-3H-[1,2,3]triazolo[4,5-d]pyrimidine-5-amine] |
| 227.5 to 228.5 °C | COc1ccc(Cn2nnc3c(-c4ccco4)nc(N)nc32)cc1OC (as salt: trifluoroacetate) [Example 122, 3-(3,4-dimethoxybenzyl)-7-(2-furyl)-3H-[1,2,3]triazolo[4,5-d]pyrimidine-5-amine trifluoroacetate salt] |
| 225.7 to 225.8 °C | Cc1ccnc(Cn2nnc3c(-c4ccco4)nc(N)nc32)c1 [Example 131, 7-(2-furyl)-3-(4-methyl-2-pyridylmethyl)-3H-[1,2,3]triazolo[4,5-d]pyrimidine-5-amine] |
| 228.7 to 228.9 °C | Nc1nc(-c2ccco2)c2nnn(Cc3cccc(F)n3)c2n1 [Example 71, 3-(6-fluoro-2-pyridylmethyl)-7-(2-furyl)-3H-[1,2,3]triazolo[4,5-d]pyrimidine-5-amine] |
| 250.1 to 261.3 °C | Cc1cc(Cn2nnc3c(-c4ccco4)nc(N)nc32)cc(C)c1N [Example 262, 3-(4-amino-3,5-dimethylbenzyl)-7-(2-furyl)-3H-[1,2,3]triazolo[4,5-d]pyrimidine-5-amine] |
| 191.7 to 191.9 °C | CC(C)c1cc(Cn2nnc3c(-c4ccco4)nc(N)nc32)ccc1[N+](=O)[O-] [Example 187, 7-(2-furyl)-3-(3-isopropyl-4-nitrobenzyl)-3H-[1,2,3]triazolo[4,5-d]pyrimidine-5-amine] |
